Measurements published in patent US20020019991A1, “COMPOSITIONS CONTAINING AN ALPHA 1,2-FUCOSE LINKAGE AND USES THEREOF” (ABBOTT LABORATORIES, priority 1998, published 2002).

Experiments:
[1] = tested on: V. cholerae; assay: Competitive assay: inhibition of V. cholerae attachment to transfected CHO (α1-2 FT) cells, colony counting; format: cell-based, Vibrio cholerae
Description: (§1) To determine whether 2′Fucosyllactose is an important chemical structure of the cell receptor for V. cholerae and enterohemorrhagic E. coli (EHEC), a competitive assay was set up. A volume of 400 ul of a suspension of transfected CHO (α1-2 FT) cells at a concentration of 4×10^5 cells/mL was placed in each well of an 8-well microchamber slide (Lab-Tek, Nunc, Inc. Naperville, Ill.). Cells were incubated overnight at 37° C. in a 5% CO2 atmosphere. A bacterial suspension of 1.5×10^8 of V. cholerae was added with either 0.5, 1, or 2 mg/mL of 2′fucosyllactose and incubated at 37° C. Wells were washed 6 times with PBS. Cells were detached with […] of triton x 100 and serial dilutions in TBS or McConkey agar plates were done for colony counting.

[2] = tested on: enterohemorrhagic E. coli (EHEC); assay: Competitive assay: inhibition of EHEC attachment to transfected CHO (α1-2 FT) cells, colony counting; format: cell-based, Escherichia coli
Description: as §1

[3] = tested on: Vibrio cholerae 01 Ogawa strain 2995; format: binding
[4] = tested on: Enteropathogenic E. coli (EPEC); format: binding, Escherichia coli
[5] = tested on: Enterohemorrhagic Escherichia coli (EHEC) 0157:H7 strain 933; format: binding

Row | Compound | dose dependence of inhibition of bacterial cell attachment ([1]; 0.5, 1, or 2 mg/mL) | inhibition of bacterial cell attachment ([1]; transfected CHO (α1-2 FT) cells, concentration as low as 0.5 mg/ml) | inhibition of binding, EHEC compared with V. cholerae ([2]; EHEC versus V. cholerae, transfected CHO cells) | dose dependence of inhibition of bacterial cell attachment ([2]; EHEC, 0.5, 1, or 2 mg/mL) | inhibition of bacterial cell attachment ([2]; EHEC, transfected CHO (α1-2 FT) cells, concentration as low as 0.5 mg/ml) | binding of V. cholerae to immobilized blood group antigen neoglycoprotein [3] | binding of EPEC to immobilized blood group antigen neoglycoprotein [4] | binding of EHEC to immobilized blood group antigen neoglycoprotein [5]
1 | C[C@@H]1O[C@@H](O[C@H]2[C@H](O[C@H]3[C@H](O)[C@@H](O)C(O)O[C@@H]3CO)O[C@H](CO)[C@H](O)[C@@H]2O)[C@@H](O)[C@H](O)[C@@H]1O (some centres unmarked) [2′fucosyllactose, 2′-fucosyllactose (Fucα1-2Galβ1-4Glc)] | dose-dependent inhibition | significant inhibition | greater inhibition | dose-dependent inhibition | significant inhibition |  |  | 
2 | Lewis^x |  |  |  |  |  | stronger binding | stronger binding | stronger binding
